PubChem BioAssay (NCI)
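Cells were grown in 96-well plates and exposed to each compound for 48 hours at five concentrations; endpoints were interpolated linearly between bracketing concentrations, or set to the highest concentration if not reached. GI50 marks 50% less growth. TGI is the concentration that stops growth completely.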

Columns and labels:
Assay in all cases: DTP human tumour cell line panel, 48 h
OVCAR-8 ovarian = system: OVCAR-8 ovarian
UACC-62 melanoma = system: UACC-62 melanoma
HOP-62 NSCLC = system: HOP-62 NSCLC
SF-295 CNS = system: SF-295 CNS
RXF 393 renal = system: RXF 393 renal
SNB-19 CNS = system: SNB-19 CNS
ACHN renal = system: ACHN renal
SK-MEL-28 melanoma = system: SK-MEL-28 melanoma
HOP-92 NSCLC = system: HOP-92 NSCLC
UO-31 renal = system: UO-31 renal

| SMILES | TGI (OVCAR-8 ovarian) [µM] | TGI (UACC-62 melanoma) [µM] | TGI (HOP-62 NSCLC) [µM] | TGI (SF-295 CNS) [µM] | TGI (RXF 393 renal) [µM] | TGI (SNB-19 CNS) [µM] | TGI (ACHN renal) [µM] | TGI (SK-MEL-28 melanoma) [µM] | TGI (HOP-92 NSCLC) [µM] | TGI (UO-31 renal) [µM] | GI50 (OVCAR-8 ovarian) [µM] | GI50 (UACC-62 melanoma) [µM] | GI50 (HOP-62 NSCLC) [µM] | GI50 (SF-295 CNS) [µM] | GI50 (SNB-19 CNS) [µM] | GI50 (ACHN renal) [µM] | GI50 (SK-MEL-28 melanoma) [µM] | GI50 (RXF 393 renal) [µM] | GI50 (HOP-92 NSCLC) [µM] | GI50 (UO-31 renal) [µM] |
| --- | --- | --- | --- | --- | --- | --- | --- | --- | --- | --- | --- | --- | --- | --- | --- | --- | --- | --- | --- | --- |
| C[N+]1(C)C/C(=C\c2ccc(O)cc2)C(=O)/C(=C/c2ccc(O)cc2)C1 | > 100 | > 100 | > 100 | > 100 | > 100 | > 100 | > 100 | > 100 | > 100 | > 100 | – | – | – | – | – | – | – | – | – | – |
| NC(=S)N/N=C1\CC(c2ccccc2)Nc2ccccc21 (stereo not drawn) | > 100 | > 100 | – | > 100 | – | > 100 | > 100 | > 100 | 57.5 | 80.7 | – | – | – | – | – | – | – | – | – | – |
| COc1ccc(OC)c([N+](=O)[O-])c1-c1nc2sc(C)c(C)n2c1/C=N/N=C(N)N | > 100 | > 100 | > 100 | > 100 | > 100 | > 100 | > 100 | > 100 | > 100 | > 100 | – | – | – | – | – | – | – | – | – | – |
| Nc1ccc(S(=O)(=O)NCCS(=O)(=O)O)cc1 | > 100 | > 100 | > 100 | > 100 | > 100 | > 100 | > 100 | > 100 | > 100 | > 100 | – | – | – | – | – | – | – | – | – | – |
| CC(=O)C(N=NC1CCC(S(=O)(=O)NB2N=CS2)CC1)C(=O)Nc1ccccc1C (stereo not drawn) | 34.1 | 34.8 | 34.7 | 35.1 | 35.9 | 31.2 | 24.6 | 30.8 | 34.3 | 34 | – | – | – | – | – | – | – | – | – | – |
| CC(=O)c1c(C)cc2cccc(OC3OC(CO)C(O)C(O)C3O)c2c1O (stereo not drawn) (tested in a mixture with another compound) | > 100 | > 100 | > 100 | > 100 | > 100 | > 100 | > 100 | > 100 | > 100 | – | – | – | – | – | – | – | – | – | – | – |
| COc1cc(O)c2c(=O)c(OC)c(-c3ccc(OC)c(OC)c3)oc2c1.[Zn+2] | > 100 | > 100 | 11.4 | 35.9 | 45.6 | > 100 | > 100 | > 100 | – | > 100 | 13.2 | 11.7 | 2.87 | 5.57 | 4.31 | 35.4 | > 100 | – | – | – |
| C=C(C[C@@H](O)[C@H](C)NC(=O)OCc1ccccc1)C(=O)OC(C)(C)C | > 100 | > 100 | > 100 | > 100 | – | > 100 | > 100 | > 100 | > 100 | > 100 | – | – | – | – | – | – | – | – | – | – |
| CCCCCCCCc1ccc(CCC(N)(CO)CO)cc1 | – | 3.31 | 3.08 | 3.93 | 2.85 | – | 2.97 | 3.2 | 3.53 | 3.4 | – | 1.72 | 1.69 | 1.98 | – | 1.61 | 1.8 | 1.52 | 1.39 | 1.7 |
| C[N+]1(c2ccccc2)C=C(c2ccccc2)SC1=S (stereo not drawn) | > 100 | > 100 | > 100 | > 100 | > 100 | > 100 | > 100 | > 100 | – | > 100 | – | – | – | – | – | – | – | – | – | – |
| O=S(=O)([O-])[O-].[Fe+2].[OH2+]c1c(Cl)cc(Cl)cc1/C=N/Nc1ccccn1 | 2.94 | 3.38 | 3.56 | 3.45 | 1.9 | 3.64 | 1.12 | 3.32 | 0.899 | 3.13 | – | – | – | – | – | – | – | – | – | – |
| CC(=O)Oc1cc(/C=C/c2ccc(O)cc2)cc(OC(C)=O)c1 | > 100 | 67.3 | > 100 | > 100 | > 100 | > 100 | > 100 | > 100 | > 100 | > 100 | – | – | – | – | – | – | – | – | – | – |
| Cc1ncc(COP(=O)(O)O)c(C)c1O | > 100 | > 100 | > 100 | > 100 | > 100 | > 100 | > 100 | > 100 | > 100 | > 100 | – | – | – | – | – | – | – | – | – | – |
| Cc1cccc(/C=C2/C(=O)Nc3ccccc32)n1 | > 80.3 | 25.8 | 33.3 | 54.4 | 27.2 | > 58.9 | > 82.1 | > 100 | 31.3 | 30.1 | – | 10.2 | – | – | – | – | – | – | – | – |
